Results on 4 compounds are retold here after patent publication US11591323B2, “Muscarinic agonists as non-steroidal and non-opioid analgesics and methods of use thereof” (Barry University, priority 2019, dated 2023).

One experiment addresses T1, M5 muscarinic receptor (Homo sapiens, UniProt P08912).
T1 sequence (P08912 1-532): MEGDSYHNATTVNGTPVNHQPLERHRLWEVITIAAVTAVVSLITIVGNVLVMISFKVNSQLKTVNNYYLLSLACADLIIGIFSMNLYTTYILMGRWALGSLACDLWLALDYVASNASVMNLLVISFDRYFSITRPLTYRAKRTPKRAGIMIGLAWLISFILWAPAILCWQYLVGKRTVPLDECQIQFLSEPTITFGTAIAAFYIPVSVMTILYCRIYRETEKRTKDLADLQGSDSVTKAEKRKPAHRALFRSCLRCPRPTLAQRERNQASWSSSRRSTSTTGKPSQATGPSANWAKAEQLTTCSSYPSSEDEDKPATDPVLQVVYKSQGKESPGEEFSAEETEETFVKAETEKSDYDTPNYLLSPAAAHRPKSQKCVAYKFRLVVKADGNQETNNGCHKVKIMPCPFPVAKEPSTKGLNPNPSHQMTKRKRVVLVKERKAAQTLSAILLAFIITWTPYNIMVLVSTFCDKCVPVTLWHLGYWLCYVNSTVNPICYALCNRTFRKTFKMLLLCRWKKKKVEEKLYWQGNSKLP
Kind of experiment: stimulation of cAMP, M5 CHO cells (M5Gs). Format: cell-based. Also noted: host or cells: CHO cells, stably transfected. Conditions: for RAi / E′MAX / τ / Δlog(τ/KA): M5Gs (↑cAMP); for RAi: Table 8, relative to carbachol; for E′MAX / τ: Table 8; for Δlog(τ/KA): Table 8, to carbachol. As to the method: (§1) To determine level of cAMP, cells in suspension were pre-incubated for 1 h with 0.4 μM [^3H]adenine, washed, and incubated for 10 min in the presence of isobutylmethylxanthine and 10 μM forskolin. […] Incubation was ended by addition of 0.2 ml of 2.5 M HCl to the samples. Samples were applied to alumina columns (1.5 g of alumina per column), washed with 2 ml ammonium acetate (pH=7.0) and eluted from columns with 4 ml ammonium acetate and measured by liquid scintillation spectrometry. […] The incubation was stopped by addition of 0.5 ml of chloroform methanol HCl mixture (2:1:0.1). After separation of water and organic phases, 0.6 ml of water phase was applied to Dowex columns (1.5 g of Dowex per column), washed by 20 ml of 60 mM ammonium formate/5 mM sodium borate buffer and eluted from columns with 4 ml of 1M ammonium formate/0.1 formic acid buffer and measured by liquid scintillation spectrometry.
(§2) Measurements of the production of cAMP and inositol phosphates: Levels of second messengers cAMP and inositol phosphates were determined in radiochemical chromatography assays as described previously. To determine level of cAMP, cells in suspension were pre-incubated for 1 h with 0.4 μM [^3H]adenine, washed, and incubated for 10 min in the presence of isobutylmethylxanthine and 10 μM forskolin. […] Incubation was ended by addition of 0.2 ml of 2.5 M HCl to the samples. Samples were applied to alumina columns (1.5 g of alumina per column), washed with 2 ml ammonium acetate (pH=7.0) and eluted from columns with 4 ml ammonium acetate and measured by liquid scintillation spectrometry. […] For this purpose, new CHO cell lines stably expressing promiscuous G15 G-protein and M2 or M4 receptor were generated by transfection with pCMV/hygro vector and hygromycin selection. To determine the rate of formation of inositol phosphates IPX, suspended cells were pre-incubated with 0.1 μM [^3H]myo-inositol for 60 min, washed, and incubated with 10 mM LiCl for 15 min. […] The incubation was stopped by addition of 0.5 ml of chloroform methanol HCl mixture (2:1:0.1). After separation of water and organic phases, 0.6 ml of water phase was applied to Dowex columns (1.5 g of Dowex per column), washed by 20 ml of 60 mM ammonium formate/5 mM sodium borate buffer and eluted from columns with 4 ml of 1M ammonium formate/0.1 formic acid buffer and measured by liquid scintillation spectrometry.
(§3) For bi-phasic response, curves were inhibitory and stimulatory phase were fitted separately. Operational Model of Functional Agonism
(§4) [formula] where y is functional response at concentration of tested compound x, EMAX is maximal response of the system, KA is equilibrium dissociation constant and nH is slope factor. Eq. 5 was fitted to data from functional experiments. Eq. 5 was fitted to data by the two-step procedure described earlier. […] In the second step, Eq. 5 with EMAX fixed to the value determined in the first step was fitted to individual experimental data sets. Relative Intrinsic Activity
(§5) Muscarinic receptors are also able to stimulate non-preferential signalling pathways.

Another experiment deals with T2, M4 muscarinic receptor (Homo sapiens, UniProt P08173).
T2 sequence (P08173 1-479): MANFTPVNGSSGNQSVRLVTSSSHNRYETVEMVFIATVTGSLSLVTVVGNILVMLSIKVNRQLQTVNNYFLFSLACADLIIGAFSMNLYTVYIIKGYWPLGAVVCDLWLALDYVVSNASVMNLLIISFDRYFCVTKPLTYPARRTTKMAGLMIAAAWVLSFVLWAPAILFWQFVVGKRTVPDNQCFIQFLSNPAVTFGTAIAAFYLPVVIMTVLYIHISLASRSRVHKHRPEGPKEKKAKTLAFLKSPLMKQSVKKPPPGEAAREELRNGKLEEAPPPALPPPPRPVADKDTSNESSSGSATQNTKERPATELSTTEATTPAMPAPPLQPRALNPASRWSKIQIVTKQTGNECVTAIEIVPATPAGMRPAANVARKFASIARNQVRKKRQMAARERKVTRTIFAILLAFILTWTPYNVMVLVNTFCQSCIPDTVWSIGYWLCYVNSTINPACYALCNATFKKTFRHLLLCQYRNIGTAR
Kind of experiment: accumulation of IPX, M4 CHO cells with promiscuous G15 G-protein (M4Gq+G15). Format: cell-based. Conditions: for RAi / E′MAX / τ / Δlog(τ/KA): M4 Gq + G15 (↑IPX); for RAi: Table 8, relative to carbachol; for accumulation of IPX: M4 co-transfected with G15, in words; for E′MAX / τ: Table 8; for Δlog(τ/KA): Table 8, to carbachol. Details: expressed in transfected cells; pCMV/hygro vector, hygromycin selection. The method, then:
Since activation of phospholipase C (PLC) via M2 and M4 receptors is weak, cells were transferred with G15 G-protein to facilitate coupling.
as §1, §2, §3, §4, §5

Entries after “also recorded” stand apart in the source; their conditions may differ.

The EC50 is the concentration that produces a half-maximal response. One may read the Kd as the equilibrium constant for the complex coming apart. Lower therefore signals tighter binding.

For `C1=CCN(Cc2cccs2)CC1.Cl` [Compound 6A, 1-[(thiophen-2-yl)methyl]-1,2,3,6-tetrahydropyridin-1-ium chloride], at M5 muscarinic receptor, the RAi was 0. Moreover, at M4 muscarinic receptor, the RAi is listed as 0 and the “accumulation of IPX” value is listed as “did not stimulate IPX accumulation”.

`C[N+]1(Cc2cccs2)CC=CCC1.[I-]` (stereo not drawn) [Compound 7A, 1-methyl-1-[(thiophen-2-yl)methyl]-1,2,3,6-tetrahydropyridin-1-ium iodide] displayed an RAi at M5 muscarinic receptor of 0. At M4 muscarinic receptor, the RAi is recorded as 0 and the “accumulation of IPX” value was “did not stimulate IPX accumulation”.

On to `C[N+](C)(C)CCOC(N)=O` [carbachol, reference compound], for which, on M5 muscarinic receptor (M5, micromolar concentrations, in words), the “increase of cAMP level” value is “at micromolar concentrations it stimulated cAMP production; also recorded: increased cAMP level at micromolar concentrations”. Further, at M5 muscarinic receptor, the “E′MAX” value is 1.23 ± 0.03 fold increase, the τ amounted to 0.10 ± 0.02 and the “Δlog(τ/KA)” value amounted to 0. On M4 muscarinic receptor, the “E′MAX” value is listed as 4.5 ± 0.3 fold over basal, the τ is recorded as 4.8 ± 0.5, the “Δlog(τ/KA)” value is reported as 0 and the “accumulation of IPX” value was “stimulated accumulation of IPX”.

Turning to `O=C1CCCN1CC#CCN1CCCC1` [oxotremorine, reference compound], on M5 muscarinic receptor, a half-maximal response (EC50) required 3.8 µM, the dissociation constant Kd was 3.98 µM, the “E′MAX” value is on record as 1.22 ± 0.03 fold increase and the τ was determined as 0.09 ± 0.02. On M5 muscarinic receptor, the RAi is given as 6.62 ± 0.58 and the “Δlog(τ/KA)” value is −0.82 ± 0.08. Moreover, at M4 muscarinic receptor, the “E′MAX” value was determined as 4.0 ± 0.3 fold over basal, the τ came out at 2.5 ± 0.2, the RAi stood at 3.50 ± 0.33 and the “Δlog(τ/KA)” value was −0.54.
